Test results from ChEMBL document CHEMBL1153235, “Synthesis and antiproliferating activity of iron chelators of hydroxyamino-1,3,5-triazine family” (Bioorg Med Chem Lett, 2010).

What was measured:
MDA-MB-231 (human) = assay: Cytotoxicity against human MDA-MB-231 cells after 96 hrs by MTT assay; conditions: MDA-MB-231, 96 h
MIA PaCa-2 (human) = assay: Cytotoxicity against human MIAPaCa2 cells after 96 hrs by MTT assay; conditions: MIA PaCa-2, 96 h
[1] = Cytotoxicity against human foreskin fibroblasts after 96 hrs by MTT assay; format: cell-based; conditions: Fibroblast

Row | SMILES | IC50 (MDA-MB-231 (human)) [µM] | IC50 (MIA PaCa-2 (human)) [µM] | IC50 [1] [µM]
1 | CCCCNc1nc(NN)nc(N(C)O)n1 | 75 | 50 | 300
2 | CCCCNc1nc(N(C)O)nc(N(C)O)n1 | 4 | 0.8 | 16.5
3 | ONc1nc(NO)nc(N2CCOCC2)n1 | 250 | 40 | 350
4 | CN(O)c1nc(N2CCOCC2)nc(N2CCC=N2)n1 | 75 | 50 | 250
5 | CON(C)c1nc(N(C)O)nc(N2CCOCC2)n1 | 150 | 40 | 250
6 | CN(O)c1nc(NN)nc(N2CCOCC2)n1 | 150 | 150 | 400
7 | CN(O)c1nc(N(C)O)nc(N2CCOCC2)n1 | 9 | 1 | 200
8 | CCOC(=O)CN(C)c1nc(N(C)O)nc(N(C)O)n1 | 20 | 4 | 200
9 | O=C(O)c1ccc(-n2nc(-c3ccccc3O)nc2-c2ccccc2O)cc1 [DEFERASIROX] | 10 | 4 | 100
